Values of other authors in US11739076B2, “Compound or its salt thereof targeting fibroblast activation protein, its preparation methods and its uses thereof” (Institute of Nuclear Energy Research Atomic Energy Council, …, priority 2021, dated 2023).

Columns and labels:
tumor = conditions: in vivo

## N#C[C@@H]1CCCN1C(=O)CNC(=O)c1ccnc2ccc(OCCCN3CCN(C(=O)CN4CCN(CC(=O)O)CCN(CC(=O)O)CCN(CC(=O)O)CC4)CC3)cc12 [FAPI-02]
FAP and DDP4
  binding ratio of FAP and DDP4: 45

## N#C[C@@H]1CC(F)(F)CN1C(=O)CNC(=O)c1ccnc2ccc(OCCCN3CCN(C(=O)CN4CCN(CC(=O)O)CCN(CC(=O)O)CCN(CC(=O)O)CC4)CC3)cc12 [FAPI-04]
FAP and DDP4
  binding ratio of FAP and DDP4: 750

## CN(CCCN1CCN(C(=O)CN2CCN(CC(=O)O)CCN(CC(=O)O)CCN(CC(=O)O)CC2)CC1)c1ccc2nccc(C(=O)NCC(=O)N3CC(F)(F)C[C@H]3C#N)c2c1 [FAPI-46]
tumor
  tumor uptake and tumor-to-tissue ratio: excellent tumor uptake and high tumor-to-tissue ratio
tumor; po
  accumulation in the oral mucosa, salivary glands and thyroid glands: does not
